The compounds below were run on HCV replicon I389luc-ubi-neo/NS3-3′/ET in ET (Huh-lucubineo-ET) cells; screening for HCV RNA dependent RNA polymerase (assay: Replicon Assay (luciferase, ET cell line Huh-lucubineo-ET)). Conditions: Hepatitis C virus; inhibition of replication relative to no compound control; test concentration of 10 μM according to the fitted equation; luciferase 48-72 hours.
Assay type: cell-based
Procedure: A cell line, ET (Huh-lucubineo-ET) was used for screening of compounds of the present invention for HCV RNA dependent RNA polymerase. The ET cell line was stably transfected with RNA transcripts harboring a I389luc-ubi-neo/NS3-3′/ET; replicon with firefly luciferase-ubiquitin-neomycin phosphotransferase fusion protein and EMCV-IRES driven NS3-5B polyprotein containing the cell culture adaptive mutations (E1202G; T12801; K1846T) (Krieger at al, 2001 and unpublished). The ET cells were grown in DMEM, supplemented with 10% fetal calf serum, 2 mM Glutamine, Penicillin (100 IU/mL)/Streptomycin (100 μg/mL), 1× nonessential amino acids, and 250 μg/mL G418 (“Geneticin”). They were all available through Life Technologies (Bethesda, Md.). The cells were plated at 0.5-1.0×10^4 cells/well in the 96 well plates and incubated for 24 hrs before adding nucleoside analogs. […] Luciferase activity were measured 48-72 hours later by adding a lysis buffer and the substrate (Catalog number Glo-lysis buffer E2661 and Bright-Glo luciferase system E2620 Promega, Madison, Wis.). Cells should not be too confluent during the assay. Percent inhibition of replication was plotted relative to no compound control. Under the same condition, cytotoxicity of the compounds was determined using cell proliferation reagent, WST-1(Roche, Germany). The compounds showing antiviral activities, but no significant cytotoxicities were chosen to determine IC50 and TC50. For these determinations, 10 concentrations of each compound were used. Concentrations for test compounds typically span a range of 500 fold. IC50 and TC50 values were calculated by fitting % inhibition at each concentration (I) to the following equation: % inhibition=100%/[1+10^(log IC50−log (I))*b] where b is Hill's coefficient.

Row | SMILES | inhibition at 10 µM [%]
1 | COc1ccc(-c2csc(NC(=O)[C@@H]3CCCN3C(=O)OCc3ccccc3)n2)cc1Cl [Compound 5090, 2-[4-(3-Chloro-4-methoxy-phenyl)-thiazol-2-ylcarbamoyl]-pyrrolidine-1-carboxylic acid benzyl ester] | 99.8
2 | O=C(NC1CC1)c1ccc(-c2csc(NC(=O)[C@@H]3CCN3C(=O)OCc3ccccc3)n2)cc1 [Compound 5301, 2-[4-(4-Cyclopropylcarbamoyl-phenyl)-thiazol-2-ylcarbamoyl]-azetidine-1-carboxylic acid benzyl ester] | 100
3 | O=C(NC1CC1)c1ccc(-c2csc(NC(=O)C3COCN3C(=O)OCc3ccccc3)n2)cc1 (centres unmarked) [Compound 5311, 4-[4-(4-Cyclopropylcarbamoyl-phenyl)-thiazol-2-ylcarbamoyl]-oxazolidine-3-carboxylic acid benzyl ester] | 99.7
4 | O=C(Nc1nc(C2CCOCC2)cs1)[C@@H]1CCCN1C(=O)OCc1ccccc1 [Compound 5051, 2-[4-(Tetrahydro-pyran-4-yl)-thiazol-2-ylcarbamoyl]-pyrrolidine-1-carboxylic acid benzyl ester] | 3.42
5 | COc1c(F)c(F)c(-c2csc(NC(=O)[C@@H]3CCCN3C(=O)OCc3ccccc3)n2)c(F)c1F [Compound 5020, 2-[4-(2,3,5,6-Tetrafluoro-4-methoxy-phenyl)-thiazol-2-ylcarbamoyl]-pyrrolidine-1-carboxylic acid benzyl ester] | 58.2
6 | O=C(Nc1nc(CCc2ccccc2)cs1)[C@@H]1CCCN1C(=O)OCc1ccccc1 [Compound 5003, 2-(4-Phenethyl-thiazol-2-ylcarbamoyl)-pyrrolidine-1-carboxylic acid benzyl ester] | 99.9
7 | O=C(NC1CCCC1)c1cccc(-c2cnc(NC(=O)[C@@H]3CCCN3C(=O)OCc3ccccc3)s2)c1 [Compound 5363, 2-[5-(3-Cyclopentylcarbamoyl-phenyl)-thiazol-2-ylcarbamoyl]-pyrrolidine-1-carboxylic acid benzyl ester] | 1.64
8 | O=C(NC1CCCC1)c1ccc(-c2cnc(NC(=O)[C@@H]3CCCN3C(=O)OCc3ccccc3)s2)cc1 [Compound 5368, 2-[5-(4-Cyclopentylcarbamoyl-phenyl)-thiazol-2-ylcarbamoyl]-pyrrolidine-1-carboxylic acid benzyl ester] | 50.8
9 | O=C(NC1CCNCC1)c1ccc(-c2csc(NC(=O)C3CCCN3C(=O)OCc3ccccc3)n2)cc1 (centres unmarked) [Compound 5356, 2-{4-[4-(Piperidin-4-ylcarbamoyl)-phenyl]-thiazol-2-ylcarbamoyl}-pyrrolidine-1-carboxylic acid benzyl ester] | 100
10 | CC(C)(CN1CCOCC1)NC(=O)c1ccc(-c2csc(NC(=O)[C@@H]3CCCN3C(=O)OCc3ccccc3)n2)cc1 [Compound 5306, 2-{4-[4-(1,1-Dimethyl-2-morpholin-4-yl-ethylcarbamoyl)-phenyl]-thiazol-2-ylcarbamoyl}-pyrrolidine-1-carboxylic acid benzyl ester] | 100
11 | O=C(Nc1nc(-c2ccc(F)cc2)cs1)[C@@H]1CCCN1C(=O)OCc1ccccc1 [Compound 5098, 2-[4-(4-Fluoro-phenyl)-thiazol-2-ylcarbamoyl]-pyrrolidine-1-carboxylic acid benzyl ester] | 97.2
12 | O=C(Nc1nc(CSc2nc3ccccc3[nH]2)cs1)[C@@H]1CCCN1C(=O)OCc1ccccc1 [Compound 5064, 2-[4-(1H-Benzoimidazol-2-ylsulfanylmethyl)-thiazol-2-ylcarbamoyl]-pyrrolidine-1-carboxylic acid benzyl ester] | 18.1
13 | O=C(NC1CC1)c1ccc(-c2csc(NC(=O)[C@@H]3CCCN3C(=O)Cc3cc(F)cc(F)c3)n2)cc1 [Compound 5315, 1-[2-(3,5-Difluoro-phenyl)-acetyl]-pyrrolidine-2-carboxylic acid [4-(4-cyclopropylcarbamoyl-phenyl)-thiazol-2-yl]-amide] | 99.7
14 | O=C(Nc1nc(-c2c(F)c(F)c(F)c(F)c2-c2ccccc2)cs1)[C@@H]1CCCN1C(=O)OCc1ccccc1 [Compound 5014, 2-[4-(3,4,5,6-Tetrafluoro-biphenyl-2-yl)-thiazol-2-ylcarbamoyl]-pyrrolidine-1-carboxylic acid benzyl ester] | 66.6
15 | O=C(Nc1ncc(Cc2ccc(Cl)cc2Cl)s1)[C@@H]1CCCN1C(=O)OCc1ccccc1 [Compound 5031, 2-[5-(2,4-Dichloro-benzyl)-thiazol-2-ylcarbamoyl]-pyrrolidine-1-carboxylic acid benzyl ester] | 2.85
16 | N#Cc1ccc(-c2csc(NC(=O)[C@@H]3CCCN3C(=O)OCc3ccccc3)n2)cc1 [Compound 5305, 2-[4-(4-Cyanophenyl)-thiazol-2-ylcarbamoyl]-pyrrolidine-1-carboxylic acid benzyl ester] | 76.3
17 | O=C(NC1CCCCC1)c1ccc(-c2csc(NC(=O)[C@@H]3CCCN3C(=O)OCc3ccccc3)n2)cc1 [Compound 5303, 2-[4-(4-Cyclohexylcarbamoyl-phenyl)-thiazol-2-ylcarbamoyl]-pyrrolidine-1-carboxylic acid benzyl ester] | 100
18 | O=C(Nc1cccc(-c2csc(NC(=O)C3CCCN3C(=O)OCc3ccccc3)n2)c1)C1CCCC1 (centres unmarked) [Compound 5026, 2-{4-[3-(Cyclopentanecarbonyl-amino)-phenyl]-thiazol-2-ylcarbamoyl}-pyrrolidine-1-carboxylic acid benzyl ester] | 100
19 | NC(=O)Nc1ccc(-c2csc(NC(=O)[C@@H]3CCCN3C(=O)OCc3ccccc3)n2)cc1 [Compound 5314, 2-[4-(4-Ureido-phenyl)-thiazol-2-ylcarbamoyl]-pyrrolidine-1-carboxylic acid benzyl ester] | 100
20 | O=C(NC1CC1)c1ccc(-c2csc(NC(=O)[C@@H]3CCCN3C(=O)OCc3ccccc3)n2)nc1 [Compound 5355, 2-[4-(5-Cyclopropylcarbamoyl-pyridin-2-yl)-thiazol-2-ylcarbamoyl]-pyrrolidine-1-carboxylic acid benzyl ester] | 99.9
21 | O=C(Nc1nc(-c2cccc(NCC3CCCC3)c2)cs1)[C@@H]1CCCN1C(=O)OCc1ccccc1 [Compound 5319, 2-{4-[3-(Cyclopentylmethyl-amino)-phenyl]-thiazol-2-ylcarbamoyl}-pyrrolidine-1-carboxylic acid benzyl ester] | 67.4
22 | O=C(Nc1nc(-c2ccc(Cl)c(Cl)c2)cs1)[C@@H]1CCCN1C(=O)OCc1ccccc1 [Compound 5034, 2-[4-(3,4-Dichloro-phenyl)-thiazol-2-ylcarbamoyl]-pyrrolidine-1-carboxylic acid benzyl ester] | 100
23 | CNC(=O)c1ccc(-c2csc(NC(=O)[C@@H]3CCCN3C(=O)OCc3ccccc3)n2)cc1 [Compound 5105, 2-[4-(4-Methylcarbamoyl-phenyl)-thiazol-2-ylcarbamoyl]-pyrrolidine-1-carboxylic acid benzyl ester] | 100
24 | O=C(Nc1nc(-c2ccc(C(=S)NC3CC3)cc2)cs1)[C@@H]1CCCN1C(=O)OCc1ccccc1 [Compound 5308, 2-[4-(4-Cyclopropylthiocarbamoyl-phenyl)-thiazol-2-ylcarbamoyl]-pyrrolidine-1-carboxylic acid benzyl ester] | 100
25 | Cc1cccc(Cc2cnc(NC(=O)[C@@H]3CCCN3C(=O)OCc3ccccc3)s2)c1 [Compound 5067, 2-[5-(3-Methyl-benzyl)-thiazol-2-ylcarbamoyl]-pyrrolidine-1-carboxylic acid benzyl ester] | 23.9
26 | O=C(NC1CC1)c1ccc(-c2csc(NC(=O)C3CCCN3C(=O)OCc3ccncc3)n2)cc1 (centres unmarked) [Compound 5384, 2-[4-(4-Cyclopropylcarbamoyl-phenyl)-thiazol-2-ylcarbamoyl]-pyrrolidine-1-carboxylic acid pyridin-4-ylmethyl ester] | 99.7
27 | O=C(Nc1ccc(-c2csc(NC(=O)[C@@H]3CCCN3C(=O)OCc3ccccc3)n2)cc1)c1ccc(Cl)cc1 [Compound 5036, 2-{4-[4-(4-Chloro-benzoylamino)-phenyl]-thiazol-2-ylcarbamoyl}-pyrrolidine-1-carboxylic acid benzyl ester] | 100
28 | O=C(O)c1ccc(-c2cnc(NC(=O)[C@@H]3CCCN3C(=O)OCc3ccccc3)s2)cc1 [Compound 5353, 2-[5-(4-Carboxy-phenyl)-thiazol-2-ylcarbamoyl]-pyrrolidine-1-carboxylic acid benzyl ester] | 50.2
29 | O=C(NCCCO)c1ccc(-c2csc(NC(=O)[C@@H]3CCCN3C(=O)OCc3ccccc3)n2)cc1 [Compound 5317, 2-{4-[4-(3-Hydroxy-propylcarbamoyl)-phenyl]-thiazol-2-ylcarbamoyl}-pyrrolidine-1-carboxylic acid benzyl ester] | 100

Reference: patent US7595398B2, “N-(5-membered aromatic ring)-amido anti-viral compounds” (SmithKline Beecham Corporation, priority 2005, dated 2009)
